Type in all cases: cell-based
Data set [1] concerns dengue virus type 2 in Huh7 hepatoblastoma cells. The data set can be described thus: Dengue Virus-2 Huh-7 EC50 (Example W). The following applies: MOI of 0.07, CPE, neutral red dye, read-out: Dengue Virus-2 Huh-7 EC50 (nM) (per Ex. W). The method, then:
(§1) Huh7 hepatoblastoma cells were seeded onto 96-well plates and incubated at 37° C. with 5% CO2 overnight. The plates were seeded at a cell concentration that will yield >70% confluent monolayers in each well after overnight incubation. Eight 3-fold serial dilutions of compounds were diluted in test media (MEM supplemented with 2% FBS and 50 μg/mL gentamicin). The highest test compound concentration was 50 μg/mL. 100 μL of each concentration was added to 5 test wells on the 96-well plate. Of these 5 test wells, 3 wells of each dilution were infected with dengue virus type 2, diluted in test media (approximately 2000 CCID50 per well for an MOI of 0.07). Test medium (100 μL) with no virus was added to 2 wells to represent the uninfected cytotoxicity controls. Six additional infected wells received 100 μL media alone as untreated virus controls. Further, 100 μL of media alone was added to 6 uninfected wells to serve as uninfected, untreated controls. Cultures were incubated at 37° C.+5% CO2 until >80% CPE is observed. After cytopathic effect (CPE) is observed microscopically, 0.011% neutral red dye was added for approximately 2 hours. The neutral red dye was removed and wells were rinsed once with PBS to remove residual, unincorporated dye. A 50:50 Sorensen citrate buffer/ethanol solution was added and incubated at room temperature for >30 minutes with agitation, followed by measurement of neutral red dye using a spectrophotometer at 540 nm. The resulting optical density measurement was converted to percent signal of the infected, untreated cell control normalizing to virus controls. EC50 and CC50 values were determined by linear regression analysis.

In data set [2] the test system is Respiratory syncytial virus recombinant with luciferase (RSV-Luc5) in HEp-2 cells. The data set can be described thus: HEp-2 RSV-Luc5 384-well assay (EC50 RSVFLUC Hep2-384, Example R). The following applies: human respiratory syncytial virus, HEp-2, 72 h, read-out: RSV Hep-2 FLuc EC50 (nM) (per Ex. R). The text has this:
HEp-2 cell line was purchased from ATCC (Manassas, VA Cat #CCL-23) and maintained in Dulbecco's […] (DMEM) (Corning, New York, NY, Cat #15-018CM) supplemented with 10% fetal bovine serum (FBS) (Hyclone, Logan, UT, Cat #SH30071-03) and 1× Penicillin-Streptornycin-L-Glutamine (Corning, New York, NY, Cat #30-009-CI). Cells were passaged 2 times per week to maintain sub-confluent densities and were used for experiments at passage 5-20. Respiratory syncytial virus recombinant with luciferase (RSV-Luc5) direct pelleted virus (≥1×107 TCID50/ml) was purchased from Microbiologics (Saint Cloud, MN). Viral replication was determined in HEp-2 cells in the following manner.
Compounds are prepared in 384-well polypropylene plates (Greiner, Monroe, NC, Cat #784201) with 8 compounds per plate in grouped replicates of 4 at 10 serially diluted concentrations (1:3).
HEp-2 cells were suspended in DMEM (supplemented with 10% FBS and 1×Penicillin-Streptonycin-L-Glutimine) and 60 μL of 4,000 cells per well were seeded into 384-well plates (Greiner, Monroe, NC, Cat #781080) using Biotek MultiFlo dispenser. After overnight incubation at 37° C. and 5% CO2, 0.4 uL of three-fold serial dilutions of compound was added to each well using a Biomek FX pipette station. RSV-Luc5 viruses were diluted in DMEM (supplemented with 10% FBS and 1× Penicillin-Streptonycin-L-Glutainie) at an MOI=0.5. Virus suspension was added to each 384-well compound plate at 20 uL per well using a Biotek MultiFlo dispenser. The assay plates were incubated for 3 days at 37° C. and 5% CO2. At the end of incubation, One-Glo reagent (Promega, Madison, WI, Cat #E6120) was prepared. The assay plate and the reagent were equilibrated to room temperature for 30 minutes. 50 uL per well of medium was removed from assay plate and 40 uL per well of One-Glo reagent was added to each plate by Biomek FX. The plates were sat at room temp for 15 minutes. Viral replication was then assessed by measuring luminescence signal using and Envision plate reader. Remdesivir was used as positive control and DMSO was used as negative control. Values were normalized to the positive and negative controls (as 0% and 100% replication, respectively) and data was fitted using non-linear regression analysis by Gilead's dose response tool. The EC50 value for each compound was then determined as the concentration reducing the viral replication by 50%.

A further data set in a line: in vitro. The following applies: human. The method, then:
as §1

Broadly, the EC50 is the concentration giving half of the maximal effect. Usually CC50 stands for the concentration at which the toxic effect on the cells reaches its halfway point. A high value points to better tolerance by the cells. For the compound `CCCCCCCCCCCCCCCCCCOC[C@H](COP(=O)(O)OC[C@@]1(C#N)O[C@@H](c2ccc3c(N)ncnn23)[C@H](O)[C@@H]1O)OCc1cc(F)cc(C#N)c1` [Compound 1, ((2R,3S,4R,5S)-5-(4-aminopyrrolo[2,1-f][1,2,4]triazin-7-yl)-2-cyano-3,4-dihydroxytetrahydrofuran-2-yl)methyl ((R)-2-((3-cyano-5-fluorobenzyl)oxy)-3-(octadecyloxy)propyl) hydrogen phosphate], the EC50 in data set [1] was determined as 9700 nM; in data set [2], 100 nM. Besides, the midpoint of cytotoxicity in the data set “in vitro”, the CC50, lay at 18 µM.
In the same order, the values of `CCCCCCCCCCCCCCCCCCOC[C@H](COP(=O)(O)OC[C@@]1(C#N)O[C@@H](c2ccc3c(N)ncnn23)[C@H](O)[C@@H]1O)OCc1ccc(C#N)c(Cl)c1` [Compound 7, ((2R,3S,4R,5S)-5-(4-aminopyrrolo[2,1-f][1,2,4]triazin-7-yl)-2-cyano-3,4-dihydroxytetrahydrofuran-2-yl)methyl ((R)-2-((3-chloro-4-cyanobenzyl)oxy)-3-(octadecyloxy)propyl) hydrogen phosphate] are 8700 nM, 84 nM and 19 µM.
On the same counts, the results for `CCCCCCCCCCCCCCCCCCOC[C@H](COP(=O)(O)OC[C@@]1(C#N)O[C@@H](c2ccc3c(N)ncnn23)[C@H](O)[C@@H]1O)OCc1ccc(C#N)nc1` [Compound 19, ((2R,3S,4R,5S)-5-(4-aminopyrrolo[2,1-f][1,2,4]triazin-7-yl)-2-cyano-3,4-dihydroxytetrahydrofuran-2-yl)methyl ((R)-2-((6-cyanopyridin-3-yl)methoxy)-3-(octadecyloxy)propyl) hydrogen phosphate] are 6600 nM, 48 nM and 25 µM.
Consider `CCCCCCCCCCCCCCCCCCOC[C@H](COP(=O)(O)OC[C@@]1(C#N)O[C@@H](c2ccc3c(N)ncnn23)[C@H](O)[C@@H]1O)Oc1cccc(C#N)n1` [Compound 21, ((2R,3S,4R,5S)-5-(4-aminopyrrolo[2,1-f][1,2,4]triazin-7-yl)-2-cyano-3,4-dihydroxytetrahydrofuran-2-yl)methyl ((R)-2-((6-cyanopyridin-2-yl)oxy)-3-(octadecyloxy)propyl) hydrogen phosphate], for which the half-maximal effective concentration (EC50) in data set [2] was 136 nM.
For `CCCCCCCCCCCCCCCCCCC[C@H](COP(=O)(O)OC[C@@]1(C#N)O[C@@H](c2ccc3c(N)ncnn23)[C@H](O)[C@@H]1O)OCc1cc(F)cc(C#N)c1` [Compound 25, ((2R,3S,4R,5S)-5-(4-aminopyrrolo[2,1-f][1,2,4]triazin-7-yl)-2-cyano-3,4-dihydroxytetrahydrofuran-2-yl)methyl ((R)-2-((3-cyano-5-fluorobenzyl)oxy)henicosyl) hydrogen phosphate], the EC50 in data set [1] came to 9200 nM; in data set [2] it was 291 nM. In “in vitro”, the CC50 was determined as 13 µM.
For the compound `CCCCCCCCCCCCCCCCC[C@H](COP(=O)(O)OC[C@@]1(C#N)O[C@@H](c2ccc3c(N)ncnn23)[C@H](O)[C@@H]1O)OCc1cc(F)cc(C#N)c1` [Compound 36, ((2R,3S,4R,5S)-5-(4-aminopyrrolo[2,1-f][1,2,4]triazin-7-yl)-2-cyano-3,4-dihydroxytetrahydrofuran-2-yl)methyl ((R)-2-((3-cyano-5-fluorobenzyl)oxy)nonadecyl) hydrogen phosphate], the EC50 in data set [1] turned out to be 10000 nM; in data set [2], 155 nM. In addition, in the data set “in vitro”, the 50% cytotoxic concentration (CC50) was 17 µM.
On the same counts, the results for `CCCCCCCCCCCCCCCCCC[C@@H](COP(=O)(O)OC[C@@]1(C#N)O[C@@H](c2ccc3c(N)ncnn23)[C@H](O)[C@@H]1O)OCc1cc(F)cc(C#N)c1` [Compound 37, ((2R,3S,4R)-5-(4-aminopyrrolo[2,1-f][1,2,4]triazin-7-yl)-2-cyano-3,4-dihydroxytetrahydrofuran-2-yl)methyl ((S)-2-((3-cyano-5-fluorobenzyl)oxy)icosyl) hydrogen phosphate] are 11000 nM, 304 nM and 16 µM.
In the same order, the values of `CCCCCCCCCCCCCCCCCCCC[C@H](COP(=O)(O)OC[C@@]1(C#N)O[C@@H](c2ccc3c(N)ncnn23)[C@H](O)[C@@H]1O)Oc1cccc(C#N)c1` [Compound 51, ((2R,3S,4R,5S)-5-(4-aminopyrrolo[2,1-f][1,2,4]triazin-7-yl)-2-cyano-3,4-dihydroxytetrahydrofuran-2-yl)methyl ((R)-2-(3-cyanophenoxy)docosyl) hydrogen phosphate] are 11000 nM, 421 nM and 21 µM.
On the same counts, the results for `CCCCCCCCCCCCCCCCCOC[C@H](COP(=O)(O)OC[C@@]1(C#N)O[C@@H](c2ccc3c(N)ncnn23)[C@H](O)[C@@H]1O)OCc1cc(F)cc(C#N)c1` [Compound 53, ((2R,3S,4R,5S)-5-(4-aminopyrrolo[2,1-f][1,2,4]triazin-7-yl)-2-cyano-3,4-dihydroxytetrahydrofuran-2-yl)methyl ((R)-2-((3-cyano-5-fluorobenzyl)oxy)-3-(heptadecyloxy)propyl) hydrogen phosphate] are 9900 nM, 113 nM and 16 µM.
With `CCCCCCCCCCCCCCCCCCOC[C@H](COP(=O)(O)OC[C@@]1(C#N)O[C@@H](c2ccc3c(N)ncnn23)[C@H](O)[C@@H]1O)OCc1cccc(C#N)n1` [Compound 68, ((2R,3S,4R)-5-(4-aminopyrrolo[2,1-f][1,2,4]triazin-7-yl)-2-cyano-3,4-dihydroxytetrahydrofuran-2-yl)methyl ((R)-2-((6-cyanopyridin-2-yl)methoxy)-3-(octadecyloxy)propyl) hydrogen phosphate], in data set [2], the EC50 turned out to be 118 nM.
Regarding `CCCCCCCCCCCCCCCCCCOC[C@H](COP(=O)(O)OC[C@@]1(C#N)O[C@@H](c2ccc3c(N)ncnn23)[C@H](O)[C@@H]1O)OCc1ccc(C#N)cc1OC` [Compound 73, ((2R,3S,4R)-5-(4-aminopyrrolo[2,1-f][1,2,4]triazin-7-yl)-2-cyano-3,4-dihydroxytetrahydrofuran-2-yl)methyl ((R)-2-((4-cyano-2-methoxybenzyl)oxy)-3-(octadecyloxy)propyl) hydrogen phosphate], the EC50 came out at 9500 nM in data set [1] and 195 nM in data set [2]. The CC50 in the data set “in vitro” turned out to be 19 µM.
In the same order, the values of `CCCCCCCCCCCCCCOC[C@H](COP(=O)(O)OC[C@@]1(C#N)O[C@@H](c2ccc3c(N)ncnn23)[C@H](O)[C@@H]1O)OCc1ccc(C#N)cc1F` [Compound 75, ((2R,3S,4R,5S)-5-(4-aminopyrrolo[2,1-f][1,2,4]triazin-7-yl)-2-cyano-3,4-dihydroxytetrahydrofuran-2-yl)methyl ((R)-2-((4-cyano-2-fluorobenzyl)oxy)-3-(tetradecyloxy)propyl) hydrogen phosphate] are 23000 nM, 385 nM and above 50 µM.

The values are drawn from patent US20250034182A1, “PHOSPHOLIPID COMPOUNDS AND METHODS OF MAKING AND USING THE SAME” (priority 2021, published 2025).
